According to ChEMBL document CHEMBL5308504, “Tm Shift (DSF) assay results for EUbOPEN Chemogenomics Library” (2023):
Values joined by “and” are separate entries in the source; they are usually repeats but may differ in a detail not shown here. Equal values may be shown once.

Assays:
[1] = biological target: T1, Peregrin (Homo sapiens) (UniProt P55201); settings: Compound concentration 20.0 uM, Protein concentration 2.0 uM, Result type QC Liability
T1 sequence (whole entry): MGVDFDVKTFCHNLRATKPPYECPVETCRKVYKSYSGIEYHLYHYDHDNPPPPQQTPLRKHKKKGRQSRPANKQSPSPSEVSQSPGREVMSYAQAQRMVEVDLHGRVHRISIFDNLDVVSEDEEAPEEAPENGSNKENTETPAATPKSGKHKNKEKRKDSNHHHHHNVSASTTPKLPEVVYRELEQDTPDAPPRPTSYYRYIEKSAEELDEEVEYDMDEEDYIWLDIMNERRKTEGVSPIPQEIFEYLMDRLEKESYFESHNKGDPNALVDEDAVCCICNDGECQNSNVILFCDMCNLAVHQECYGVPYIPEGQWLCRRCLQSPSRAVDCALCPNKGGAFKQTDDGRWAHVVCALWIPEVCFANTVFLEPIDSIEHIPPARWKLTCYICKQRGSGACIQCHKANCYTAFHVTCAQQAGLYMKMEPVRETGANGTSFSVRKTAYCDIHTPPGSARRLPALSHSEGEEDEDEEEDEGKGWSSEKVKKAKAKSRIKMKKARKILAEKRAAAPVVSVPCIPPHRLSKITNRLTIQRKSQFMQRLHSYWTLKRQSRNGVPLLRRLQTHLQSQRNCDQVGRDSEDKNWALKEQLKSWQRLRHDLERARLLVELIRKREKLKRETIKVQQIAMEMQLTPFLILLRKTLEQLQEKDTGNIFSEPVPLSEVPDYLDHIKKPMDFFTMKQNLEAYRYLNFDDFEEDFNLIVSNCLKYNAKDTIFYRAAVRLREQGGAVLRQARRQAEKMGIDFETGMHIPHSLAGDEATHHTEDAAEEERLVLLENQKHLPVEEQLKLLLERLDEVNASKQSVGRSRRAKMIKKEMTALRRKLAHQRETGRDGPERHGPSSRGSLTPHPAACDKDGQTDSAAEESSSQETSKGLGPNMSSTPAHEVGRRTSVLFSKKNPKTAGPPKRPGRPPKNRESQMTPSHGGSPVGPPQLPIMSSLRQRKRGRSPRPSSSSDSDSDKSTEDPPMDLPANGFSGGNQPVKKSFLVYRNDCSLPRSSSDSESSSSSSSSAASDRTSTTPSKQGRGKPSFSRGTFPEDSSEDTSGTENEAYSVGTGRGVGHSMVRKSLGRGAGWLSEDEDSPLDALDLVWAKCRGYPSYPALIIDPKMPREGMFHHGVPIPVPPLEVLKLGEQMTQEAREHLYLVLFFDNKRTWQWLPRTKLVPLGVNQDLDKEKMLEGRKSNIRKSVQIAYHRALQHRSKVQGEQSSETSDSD

[2] = biological target: Fibroblast growth factor receptor 3 (Homo sapiens) (UniProt P22607); settings: Compound concentration 20.0 uM, Protein concentration 2.0 uM, Result type QC Liability
Chain of Fibroblast growth factor receptor 3 (Homo sapiens) (P22607 23-806 limits assumed): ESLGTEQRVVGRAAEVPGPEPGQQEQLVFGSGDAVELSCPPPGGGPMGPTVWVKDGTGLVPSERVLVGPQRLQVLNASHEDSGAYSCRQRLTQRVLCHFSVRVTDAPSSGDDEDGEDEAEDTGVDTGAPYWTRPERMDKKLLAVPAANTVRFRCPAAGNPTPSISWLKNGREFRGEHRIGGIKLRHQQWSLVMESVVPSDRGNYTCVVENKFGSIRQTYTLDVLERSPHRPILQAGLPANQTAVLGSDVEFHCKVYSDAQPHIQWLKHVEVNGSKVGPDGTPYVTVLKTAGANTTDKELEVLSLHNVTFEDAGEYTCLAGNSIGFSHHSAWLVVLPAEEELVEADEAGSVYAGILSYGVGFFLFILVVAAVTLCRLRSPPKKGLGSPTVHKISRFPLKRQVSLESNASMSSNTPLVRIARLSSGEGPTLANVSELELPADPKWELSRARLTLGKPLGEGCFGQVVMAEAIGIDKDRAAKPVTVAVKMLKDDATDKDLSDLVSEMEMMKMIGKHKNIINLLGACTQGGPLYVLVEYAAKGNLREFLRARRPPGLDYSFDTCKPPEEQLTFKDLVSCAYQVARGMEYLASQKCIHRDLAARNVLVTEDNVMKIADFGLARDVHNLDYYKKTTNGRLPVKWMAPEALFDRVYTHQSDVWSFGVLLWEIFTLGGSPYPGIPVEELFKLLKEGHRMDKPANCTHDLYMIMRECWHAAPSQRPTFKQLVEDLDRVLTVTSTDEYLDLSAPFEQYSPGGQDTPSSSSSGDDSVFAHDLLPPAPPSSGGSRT
Description: Thermal Shift Assay. Domain: start/stop: P449-E759

CC(C)(O)c1coc(S(=O)(=O)NC(=O)Nc2c3c(cc4c2CCC4)CCC3)c1
ΔTm [1]: -2.87 °C
ΔTm [2]: 0.84 °C

CN(C(=O)c1cnn2cccnc12)c1cc2c(cc1N1CCOCC1)C(=O)N(C[C@@H](F)C(C)(C)O)C2
ΔTm [1]: -1.49 °C
ΔTm [2]: 1.38 °C

CC(=O)Oc1ccc2c(c1)[C@@]1(C)CCC[C@](C)(C(=O)OC(=O)[C@@]3(C)CCC[C@]4(C)c5cc(OC(C)=O)ccc5CC[C@@H]34)[C@@H]1CC2
ΔTm [1]: -2.67 °C
ΔTm [2]: 0.1 °C

CCCCCCCC/C=C\CCCCCCCC(=O)NCCO
ΔTm [1]: -0.91 °C
ΔTm [2]: 1.23 °C

CCCCc1oc2ccccc2c1C(=O)c1cc(I)c(OCCN(CC)CC)c(I)c1
ΔTm [1]: -1.31 °C
ΔTm [2]: 0.79 °C

CO[C@H]1CC[C@H](N(c2cc(F)c(Oc3ncc(Cn4nccn4)cc3C(F)(F)F)cc2C(=O)O)C(=O)[C@H]2CC[C@H](C)CC2)CC1
ΔTm [1]: -4.09 °C
ΔTm [2]: 0.62 °C

Cn1cnc(Cn2ccc3ccc(CNCc4[nH]c5ccccc5c4[C@@H]4NC(=O)c5ccc(O)cc54)cc32)c1
ΔTm [1]: -1.61 °C
ΔTm [2]: 0.85 °C

CNCc1ccc(-c2cc(-c3nc(-c4ccc(S(=O)(=O)C(C)C)cc4)cnc3N)on2)cc1
ΔTm [1]: -0.8 °C
ΔTm [2]: -1.35 °C

Cc1cnc(Nc2ccc(C(=O)N3CCN(C)CC3)cc2)nc1N[C@@H]1CCC[C@@H]1C(N)=O
ΔTm [1]: -1.57 °C
ΔTm [2]: 7.25 °C

COc1ccc(OC(=O)N(CC(=O)O)Cc2ccc(OCCc3nc(-c4ccccc4)oc3C)cc2)cc1
ΔTm [1]: -1.99 °C
ΔTm [2]: 0.89 °C

Fc1ccc(-c2nc(-c3c(F)cccc3F)[nH]c2-c2ccncc2)cc1
ΔTm [1]: 0.63 °C
ΔTm [2]: 2.21 °C

O=C(O)c1cc(-c2ccccc2)ccc1O
ΔTm [1]: -0.36 °C
ΔTm [2]: 0.62 °C

CCn1ccc(Nc2ncc3c(n2)-c2c(nn(C)c2-c2ccc(-c4cnn(C)c4)cc2Cl)CC3)n1
ΔTm [1]: -0.93 °C
ΔTm [2]: 2.93 °C

CCC(=O)O[C@@H](OP(=O)(CCCCc1ccccc1)CC(=O)N1C[C@H](C2CCCCC2)C[C@H]1C(=O)O)C(C)C (some centres not stated)
ΔTm [1]: -1.88 °C
ΔTm [2]: 0.42 °C

CN1C(=O)Cc2ccc(-c3ccc(C[C@@H](C#N)NC(=O)[C@@H]4N[C@H]5CC[C@@H]4C5)c(F)c3)cc21
ΔTm [1]: 1.91 °C
ΔTm [2]: 0.66 °C

COc1cc(C(=O)NCCOCCOCCOCC(=O)N[C@H](C(=O)N2C[C@H](O)C[C@H]2C(=O)NCc2ccc(-c3scnc3C)cc2)C(C)(C)C)ccc1Nc1ncc(C(F)(F)F)c(Oc2cccc3c2C(=O)CC3)n1
ΔTm [1]: -0.82 °C
ΔTm [2]: 1.52 °C

Cc1cc2ncnn2cc1Nc1ncc2c(n1)n(C1CCOCC1)c(=O)n2C
ΔTm [1]: -4.35 °C
ΔTm [2]: 0.53 °C

C[C@H](NC(=O)c1cnc2n1[C@](C)(Cc1ccc(C#N)cc1)C(=O)N2c1cc(Cl)c(F)c(Cl)c1)C(=O)NC1(c2ccccn2)CC1
ΔTm [1]: -0.27 °C
ΔTm [2]: 0.96 °C

O=C(O)[C@]1(Cc2cccc(Nc3nccs3)n2)CC[C@@H](Oc2cccc(Cl)c2F)CC1
ΔTm [1]: -3.28 °C
ΔTm [2]: 6.09 °C

Nc1ncnc2c1c(I)cn2[C@@H]1O[C@H](CO)[C@@H](O)[C@H]1O
ΔTm [1]: -1.79 °C
ΔTm [2]: 3.13 °C

CC[C@@H](C(=O)OC)n1c(=O)c2ccccc2n(Cc2cn(C)c3cccc(C)c23)c1=O
ΔTm [1]: -3.31 °C
ΔTm [2]: 1.21 °C

C=CC(=O)Nc1cccc(C(=O)Nc2ccc(Nc3cc(-c4c(-c5ccc(F)cc5)nc(SC)n4C)ccn3)cc2)c1
ΔTm [1]: 0.18 °C
ΔTm [2]: -0.43 °C

CCCCC(C)(O)C/C=C/[C@H]1[C@H](O)CC(=O)[C@@H]1CCCCCCC(=O)O (some centres not stated)
ΔTm [1]: -1.2 °C
ΔTm [2]: 0.43 °C

COc1cc(OC)cc(-c2cc3cnc(N)nc3nc2NC(=O)NC(C)(C)C)c1
ΔTm [1]: -0.52 °C and -0.82 °C
ΔTm [2]: 5.05 °C and 9.51 °C

CN(C)CCCN1c2ccccc2Sc2ccc(Cl)cc21
ΔTm [1]: -1.01 °C
ΔTm [2]: 0.65 °C

N=C(N)NCCC[C@@H](NC(=O)C(c1ccccc1)c1ccccc1)C(=O)NCc1ccc(CNC(N)=O)cc1
ΔTm [1]: -2 °C
ΔTm [2]: 0.46 °C

COc1ncc(-c2cc(-c3ncc(CN4C[C@@H](C)O[C@@H](C)C4)o3)c3cn[nH]c3c2)cc1NS(C)(=O)=O
ΔTm [1]: -0.2 °C
ΔTm [2]: 1.45 °C

Nc1ncc2c(n1)-c1c([nH]c3ccc(C4CC4)cc13)CCCC2
ΔTm [1]: -1.74 °C
ΔTm [2]: 0.81 °C

CN1CCc2cc(Nc3ncc(C(F)(F)F)c(NCc4cc[nH]n4)n3)ccc2C1
ΔTm [1]: -1.01 °C
ΔTm [2]: 8.22 °C

C[C@H](CCC(=O)O)[C@H]1CC[C@H]2[C@@H]3CC[C@@H]4C[C@H](O)CC[C@]4(C)[C@H]3CC[C@]12C
ΔTm [1]: -3.84 °C
ΔTm [2]: -0.33 °C

CCN(CC)CCO[C@H]1CC[C@@]2(C)C(=CC[C@@H]3[C@@H]2CC[C@]2(C)C(=O)CC[C@@H]32)C1
ΔTm [1]: -0.77 °C
ΔTm [2]: 0.44 °C

CC1CNCCc2c1nc1ccnn1c2N1CC(C(=O)N2CCC(C)(C)C2)C1 (configuration not stated)
ΔTm [1]: -1.64 °C
ΔTm [2]: 0.56 °C

Clc1ccccc1C(c1ccccc1)(c1ccccc1)n1cccn1
ΔTm [1]: -3.65 °C
ΔTm [2]: 0.25 °C

CCc1c(-c2ccc3[nH]ncc3c2)cnc(N)c1-c1ccc(O)cc1
ΔTm [1]: -1.61 °C
ΔTm [2]: 2.78 °C

CC(F)(F)CN1C(=O)c2[nH]nc(-c3cccc4[nH]c(=O)oc34)c2C1c1ccc(Oc2cc(C(F)(F)F)cc(C(F)(F)F)c2)cc1 (configuration not stated)
ΔTm [1]: -0.66 °C
ΔTm [2]: -5.32 °C

O=C(Nc1cc2cc[nH]c(=O)c2cc1Cl)[C@H]1CNC[C@@H]1c1cccnc1
ΔTm [1]: -0.61 °C
ΔTm [2]: 0.4 °C

COc1cc2ncnc(Nc3cccc(O)c3)c2cc1OC
ΔTm [1]: -1.59 °C
ΔTm [2]: 2.74 °C

CC(C)(C)OC(=O)CN(Cc1ccc(Cl)cc1)Cc1ccc([N+](=O)[O-])s1
ΔTm [1]: -0.13 °C
ΔTm [2]: 0.88 °C

CC(C)S(=O)(=O)c1ccccc1Nc1nc(N[C@@H]2CCCN(CCCCCCCNC(=O)COc3cccc4c3C(=O)N(C3CCC(=O)NC3=O)C4=O)C2)ncc1Cl (some centres not stated)
ΔTm [1]: 0.63 °C
ΔTm [2]: 7.81 °C

CCS(=O)(=O)Nc1cccc(Oc2cncc(Nc3ccc(I)cc3F)c2C(N)=O)c1
ΔTm [1]: -2.79 °C
ΔTm [2]: 1.17 °C

O=C(Nc1ccc(-n2nc(-c3cccnc3)cc2C(F)(F)F)cn1)c1ccc(-c2ccccc2)c(F)c1
ΔTm [1]: -2.22 °C
ΔTm [2]: 0.42 °C

Cc1ccc2c(N)c(C(=O)NC3CCc4cc(N5CC6CCC(C5)N6)ccc4C3)sc2n1 (configuration not stated)
ΔTm [1]: -1.37 °C
ΔTm [2]: 0.55 °C

Cc1cccc(-c2nn3c(c2-c2ccnc4ccc(C(N)=O)cc24)CCC3)n1
ΔTm [1]: -0.93 °C
ΔTm [2]: 1.13 °C

C=CC(=O)Nc1cccc(C)c1Nc1ncc2cc(-c3c(Cl)c(OC)cc(OC)c3Cl)ccc2n1
ΔTm [1]: -0.73 °C
ΔTm [2]: 1.71 °C

O=C(CCSCc1ccco1)NNC(=O)N1Cc2ccccc2Oc2ccc(Cl)cc21
ΔTm [1]: -3.17 °C
ΔTm [2]: 0.24 °C

CC(C)(O)CNC(=O)N1C(=O)N(c2cccc(C(F)(F)F)c2)C2=C(C(=O)CC2)[C@H]1c1ccc(C#N)cc1
ΔTm [1]: -1.94 °C
ΔTm [2]: 0.72 °C

CC[C@H]1[C@@H](O)[C@@H]2[C@H](CC[C@]3(C)[C@@H]([C@H](C)CCC(=O)O)CC[C@@H]23)[C@@]2(C)CC[C@@H](O)C[C@@H]12
ΔTm [1]: -1.33 °C
ΔTm [2]: 0 °C

NS(=O)(=O)c1ccc(Nc2nc(OCC3CCCCC3)c3nc[nH]c3n2)cc1
ΔTm [1]: 1.2 °C
ΔTm [2]: 0.37 °C

O=C(O)C[C@H]1CC[C@H](c2ccc(NC(=O)c3nnc(Nc4ccc(F)c(F)c4)o3)cc2)CC1
ΔTm [1]: -2.89 °C
ΔTm [2]: 0.79 °C

CC(C)(O)c1cn(-c2ccc(-c3cccc(S(C)(=O)=O)c3)cc2)c(C(C)(C)c2ccccc2Cl)n1
ΔTm [1]: -1.46 °C
ΔTm [2]: -2.28 °C

CN[C@@H](C)C(=O)N[C@H]1CN(C(=O)CC(C)C)CC[C@H]2CC[C@@H](C(=O)NC(c3ccccc3)c3ccccc3)N2C1=O
ΔTm [1]: -1.53 °C
ΔTm [2]: 0.83 °C

CN(C)C(=O)Cn1cc(-c2ccc(-c3nnc4ccccn34)cc2)cn1
ΔTm [1]: -2.13 °C
ΔTm [2]: 0.47 °C

COc1c(OCCCN2CCOCC2)ccc2c1N=C(NC(=O)c1cnc(N)nc1)N1CCN=C21
ΔTm [1]: -0.93 °C
ΔTm [2]: 0.63 °C

COCCc1ccc(-c2c(C)nc3c(N4CCOCC4)ccnn23)cn1
ΔTm [1]: -2.19 °C
ΔTm [2]: 1.27 °C

Nc1ncnc2[nH]c(-c3ccccc3)nc12
ΔTm [1]: -0.39 °C
ΔTm [2]: 1.78 °C

O=C(O)CCn1c2c(c3ccccc31)C[C@H](NS(=O)(=O)c1ccc(F)cc1)CC2
ΔTm [1]: -1.45 °C
ΔTm [2]: 0.49 °C

COC(=O)c1ccc2c(c1)NC(=O)/C2=C(\Nc1ccc(-c2nccn2C)cc1)c1ccccc1
ΔTm [1]: -1.36 °C
ΔTm [2]: 6.61 °C

COc1cc2ncnc(N[C@H](C)c3ccccc3)c2cc1OC1CCN(S(C)(=O)=O)CC1
ΔTm [1]: -0.11 °C
ΔTm [2]: 0.38 °C

C/C=C1\C(=O)CC2C3CCC4=CC(=O)CC[C@]4(C)C3CC[C@]12C (some centres not stated)
ΔTm [1]: -1.36 °C
